In US20240174634A1, “Aldehyde Dehydrogenase Inhibitors and Their Therapeutic Use” (priority 2020, published 2024) one finds IC50 data, which are given here for 30 compounds.

The target in the assay is T1, ALDH2 (Homo sapiens, UniProt P05091).
T1 sequence (P05091 18-517): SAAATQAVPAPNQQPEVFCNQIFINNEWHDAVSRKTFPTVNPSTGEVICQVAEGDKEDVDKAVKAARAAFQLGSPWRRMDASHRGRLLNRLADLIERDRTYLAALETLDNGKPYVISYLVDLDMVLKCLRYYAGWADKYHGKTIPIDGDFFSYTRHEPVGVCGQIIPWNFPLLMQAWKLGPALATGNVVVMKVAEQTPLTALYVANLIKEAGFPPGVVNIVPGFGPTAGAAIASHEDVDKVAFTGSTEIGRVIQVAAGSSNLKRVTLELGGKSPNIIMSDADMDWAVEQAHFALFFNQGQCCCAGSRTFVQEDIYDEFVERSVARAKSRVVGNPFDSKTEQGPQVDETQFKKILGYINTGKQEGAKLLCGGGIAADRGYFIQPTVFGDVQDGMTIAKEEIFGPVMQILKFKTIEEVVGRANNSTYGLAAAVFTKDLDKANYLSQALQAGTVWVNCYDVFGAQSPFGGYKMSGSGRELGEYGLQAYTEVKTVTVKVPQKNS
In words: Selectivity biochemical assay, NAD(P)H-Glo Detection System. As for the experimental part: Materials: ALDH2 was purchased from Abnova. Tris(hydroxymethyl)aminomethane (Tris) was purchased from MP Biomedicals. TCEP, ethylenediaminetetraacetic acid (EDTA), propionaldehyde, DMSO and Tween-20 were purchased from Sigma. Nicotinamide adenine dinucleotide (NAD) was obtained from Abcam. The NAD(P)H-Glo™ Detection System was purchased from Promega. White, non-binding surface, 384 well plates were supplied by Corning (#3574).
Method: Inhibition of ALDH1A3 was assessed using the NAD(P)H-Glo™ Detection System (Cat. No. G9062) from Promega. This assay detects the production of NADH from NAD by ALDH1A3 via the coupled enzymatic conversion of a proluciferin reductase substrate to generate a luminescent signal. Inhibition of ALDH1A3 by small molecule inhibitors will result in reduction or abrogation of luminescence signal increase above background. Inhibition of ALDH1A1, ALDH1A2 and ALDH2 (selectivity assays) were assessed using the same assay.
Compounds were dosed into Corning 384 well assay plates using an Echo acoustic dispenser to give 10 point curves in a 3-fold dilution series. Compounds were dispensed from a 20 mM DMSO stock and initially screened at a top concentration of 20 μM (ALDH1A3) or 250 μM (ALDH1A1, ALDH1A2 & ALDH2). Enzyme was added to the plate in a 5 μL volume, according to the final concentrations in table 1 below, and pre-incubated with compound for 30 minutes at room temperature before the addition of 5 μL of the substrate (propionaldehyde) and cofactor (NAD), to effect final concentrations equal to the Km as shown in Table 1. The assay buffer used consisted of 40 mM Tris for 1A1 (pH 7.6), 1A2 (pH 7.6) and 1A3 (pH 9.0) and 10 mM Tris for ALDH2 (pH 8.0) supplemented with 1 mM TCEP, 0.01% Tween-20, 0.1 mM EDTA. The reaction mix was incubated at 26° C. on a shaking incubator for 30 minutes before being stopped by the addition of 10 μL of the Promega detection reagent and 100×IC50 of inhibitors of the respective isoforms. After stopping the reaction the plate was incubated for 60 minutes at room temperature and the luminescence signal read on a PheraStar FS microplate reader (BMG Labtech) and resulting IC50 values were calculated using Dotmatics software.
Enzyme, substrate and cofactor concentrations were selected to ensure the reaction ran under initial velocity conditions.
`CC1(c2ccccc2)COCCN1CCOc1ccc2c(c1)CCC(=O)N2` (stereo not drawn) [ALDHI-2040, 6-[2-(3-methyl-3-phenyl-morpholin-4-yl)ethoxy]-3,4-dihydro-1H-quinolin-2-one] yielded an IC50 of at least 100 µM.

`O=C1CCc2cc(OCCN3CCCC3c3cccnc3)ccc2N1` (stereo not drawn) [ALDHI-2005, 6-[2-[2-(3-pyridyl)pyrrolidin-1-yl]ethoxy]-3,4-dihydro-1H-quinolin-2-one] showed an IC50 of at least 100 µM.

As for `CC1(c2cccc(F)c2)CCCN1CCOc1ccc2c(c1)CCC(=O)N2` (stereo not drawn) [ALDHI-2037, 6-[2-[2-(3-fluorophenyl)-2-methyl-pyrrolidin-1-yl]ethoxy]-3,4-dihydro-1H-quinolin-2-one], the IC50 was at least 100 µM.

The compound `O=C1CCc2cc(OCCN3CCCC3c3ccccc3)ccc2N1` (stereo not drawn) [ALDHI-2019, 6-[2-(2-phenylpyrrolidin-1-yl)ethoxy]-3,4-dihydro-1H-quinolin-2-one] yielded an IC50 of at least 100 µM.

Consider `O=C1CCc2cc(OCCN(CCO)Cc3cccc(F)c3)ccc2N1` [ALDHI-3002, 6-[2-[(3-fluorophenyl)methyl-(2-hydroxyethyl)amino]ethoxy]-3,4-dihydro-1H-quinolin-2-one], for which the half-inhibitory concentration (IC50) was at least 100 µM.

In the case of `O=C1CCc2cc(OCCN3CCCC3c3cc(F)cc(F)c3)ccc2N1` (stereo not drawn) [ALDHI-2032, 6-[2-[2-(3,5-difluorophenyl)pyrrolidin-1-yl]ethoxy]-3,4-dihydro-1H-quinolin-2-one], the IC50 is at least 100 µM.

Regarding `O=C1CSc2cc(OCCN3CCCC3c3cccnc3)ccc2N1` (stereo not drawn) [ALDHI-2028, 7-[2-[2-(3-pyridyl)pyrrolidin-1-yl]ethoxy]-4H-1,4-benzothiazin-3-one], the half-maximal inhibitory concentration (IC50) is at least 100 µM.

As for `CC1CN(CCOc2ccc3c(c2)CCC(=O)N3)C(c2ccccc2)CO1` (mixture of isomers) [ALDHI-2042, 6-[2-(2-methyl-5-phenyl-morpholin-4-yl)ethoxy]-3,4-dihydro-1H-quinolin-2-one], the IC50 is at least 100 µM.

`O=C1CCc2cc(NC(=O)c3scnc3-c3ccccc3Cl)ccc2N1` [ALDHI-1012, 4-(2-chlorophenyl)-N-(2-oxo-3,4-dihydro-1H-quinolin-6-yl)thiazole-5-carboxamide] came in with an IC50 of at least 100 µM.

Take `O=C1CCc2cc(OCCN3CCC[C@@H]3c3cccc(F)c3)ccc2N1` [ALDHI-2007, 6-[2-[(2R)-2-(3-fluorophenyl)pyrrolidin-1-yl]ethoxy]-3,4-dihydro-1H-quinolin-2-one]: the IC50 was at least 100 µM.

For the compound `O=C1CCc2cc(OCCN3C(=O)CCC3c3ccccc3)ccc2N1` (stereo not drawn) [ALDHI-2051, 6-[2-(2-oxo-5-phenyl-pyrrolidin-1-yl)ethoxy]-3,4-dihydro-1H-quinolin-2-one], the IC50 was at least 100 µM.

As for `O=C1CCc2cc(OCCN3CCC[C@H]3c3cccc(F)c3)ccc2N1` [ALDHI-2018, 6-[2-[(2S)-2-(3-fluorophenyl)pyrrolidin-1-yl]ethoxy]-3,4-dihydro-1H-quinolin-2-one], the IC50 was at least 100 µM.

The compound `Cc1ccc(C2CCCN2CCOc2ccc3c(c2)CCC(=O)N3)cc1` (stereo not drawn) [ALDHI-2010, 6-[2-[2-(p-tolyl)pyrrolidin-1-yl]ethoxy]-3,4-dihydro-1H-quinolin-2-one] showed an IC50 of at least 100 µM.

The compound `O=C1CCc2cc(OCCN3CC(O)CC3c3cccc(F)c3)ccc2N1` (mixture of isomers) [ALDHI-2035, 6-[2-[2-(3-fluorophenyl)-4-hydroxy-pyrrolidin-1-yl]ethoxy]-3,4-dihydro-1H-quinolin-2-one] had an IC50 of at least 100 µM.

`Cc1nc(C2CCCN2CCOc2ccc3c(c2)CCC(=O)N3)cs1` (stereo not drawn) [ALDHI-2033, 6-[2-[2-(2-methylthiazol-4-yl)pyrrolidin-1-yl]ethoxy]-3,4-dihydro-1H-quinolin-2-one] registered an IC50 of at least 100 µM.

On to `O=C1CCc2cc(OCCN3CCOCC3c3cccc(F)c3)ccc2N1` (stereo not drawn) [ALDHI-2031, 6-[2-[3-(3-fluorophenyl)morpholin-4-yl]ethoxy]-3,4-dihydro-1H-quinolin-2-one], for which the IC50 is at least 100 µM.

Consider `O=C1CCc2cc(NC(=O)c3sc(N4CC(O)C4)nc3-c3cccc(F)c3)ccc2N1` [ALDHI-1004, 4-(3-fluorophenyl)-2-(3-hydroxyazetidin-1-yl)-N-(2-oxo-3,4-dihydro-1H-quinolin-6-yl)thiazole-5-carboxamide], for which the IC50 was at least 100 µM.

`O=C1COc2cc(OCCN3CCCC3c3cccc(F)c3)ccc2N1` (stereo not drawn) [ALDHI-2009, 7-[2-[2-(3-fluorophenyl)pyrrolidin-1-yl]ethoxy]-4H-1,4-benzoxazin-3-one] yielded an IC50 of at least 100 µM.

Consider `O=C1CCc2cc(NC(=O)c3scnc3-c3ccc(F)cc3)ccc2N1` [ALDHI-1017, 4-(4-fluorophenyl)-N-(2-oxo-1,2,3,4-tetrahydroquinolin-6-yl)thiazole-5-carboxamide], for which the IC50 was at least 100 µM.

For `O=C1CCc2cc(OCCn3nccc3-c3cccc(F)c3)ccc2N1` [ALDHI-2023, 6-[2-[5-(3-fluorophenyl)pyrazol-1-yl]ethoxy]-3,4-dihydro-1H-quinolin-2-one], the IC50 is at least 100 µM.

In turn, `O=C1CCc2cc(NC(=O)c3ocnc3-c3cccc(F)c3)ccc2N1` [ALDHI-1019, 4-(3-fluorophenyl)-N-(2-oxo-3,4-dihydro-1H-quinolin-6-yl)oxazole-5-carboxamide] showed an IC50 of at least 100 µM.

As to `O=C1CSc2cc(OCCN3CCCC3c3ccncc3)ccc2N1` (stereo not drawn) [ALDHI-2029, 7-[2-[2-(4-pyridyl)pyrrolidin-1-yl]ethoxy]-4H-1,4-benzothiazin-3-one], the IC50 was at least 100 µM.

For the compound `O=C1CSc2cc(OCCN3CCCC3c3ccccn3)ccc2N1` (stereo not drawn) [ALDHI-2027, 7-[2-[2-(2-pyridyl)pyrrolidin-1-yl]ethoxy]-4H-1,4-benzothiazin-3-one], the IC50 was at least 100 µM.

In turn, `COc1cccc(C2CCCN2CCOc2ccc3c(c2)CCC(=O)N3)c1` (stereo not drawn) [ALDHI-2034, 6-[2-[2-(3-methoxyphenyl)pyrrolidin-1-yl]ethoxy]-3,4-dihydro-1H-quinolin-2-one] displayed a half-maximal inhibitory concentration (IC50) of at least 100 µM.

In turn, `O=C1CCc2cc(OCCN3CCCC3c3ccsc3)ccc2N1` (stereo not drawn) [ALDHI-2014, 6-[2-[2-(3-thienyl)pyrrolidin-1-yl]ethoxy]-3,4-dihydro-1H-quinolin-2-one] returned an IC50 of at least 100 µM.

With `CC1(C)Oc2cc(OCCN3CCCC3c3cccc(F)c3)ccc2NC1=O` (stereo not drawn) [ALDHI-2043, 7-[2-[2-(3-fluorophenyl)pyrrolidin-1-yl]ethoxy]-2,2-dimethyl-4H-1,4-benzoxazin-3-one], the IC50 was at least 100 µM.

In turn, `O=C1CCc2cc(OCCN3CCCC3c3ccccc3F)ccc2N1` (stereo not drawn) [ALDHI-2002, 6-[2-[2-(2-fluorophenyl)pyrrolidin-1-yl]ethoxy]-3,4-dihydro-1H-quinolin-2-one] came in with an IC50 of at least 100 µM.

`O=C1CSc2cc(OCCN3CCCC3c3cccc(F)c3)ccc2N1` (stereo not drawn) [ALDHI-2008, 7-[2-[2-(3-fluorophenyl)pyrrolidin-1-yl]ethoxy]-4H-1,4-benzothiazin-3-one] registered an IC50 of at least 100 µM.

`O=C1CCc2cc(NC(=O)c3c[nH]nc3-c3cccc(F)c3)ccc2N1` [ALDHI-1006, 3-(3-fluorophenyl)-N-(2-oxo-1,2,3,4-tetrahydroquinolin-6-yl)-1H-pyrazole-4-carboxamide] came in with an IC50 of 10 to 100 µM.

With `O=C1CCc2cc(NC(=O)c3ncsc3-c3cccc(F)c3)ccc2N1` [ALDHI-1014, 5-(3-fluorophenyl)-N-(2-oxo-3,4-dihydro-1H-quinolin-6-yl)thiazole-4-carboxamide], the IC50 was at least 100 µM.

For orientation: IC50 means the concentration at which inhibition is half-maximal.
